Assay results: publication PMC11460632, “Chemical modification of hyaluronan oligosaccharides differentially modulates hyaluronan–hyaladherin interactions” (The Journal of Biological Chemistry, 2024)
Entries after “also recorded” stand apart in the source; their conditions may differ. Where two headings read alike, the source gives them in different places.

Tests used:
Link_TSG6 = molecular target: T1, Link_TSG6 (Homo sapiens, UniProt P98066); assay: ITC of HA oligosaccharides binding to Link_TSG6; conditions: for N / ΔG / ΔH / −TΔS: 25 °C, 5 mM MES pH 6.0, mean ± SEM; for N: 0.029 mM Link_TSG6, 0.29 mM oligosaccharide, four titrations
T1 construct: made in house
Description: ITC experiments were performed using a MicroCal PEAQ-ITC instrument (Malvern Instruments). Oligosaccharide stock solutions were prepared at 0.29 mM (in 5 mM MES, pH 6.0) and injected (18 × 2 μl with 120 s spacing between injections) into the cell containing ∼200 μl Link_TSG6 (0.029 mM) in matched buffer at 25 °C. Data were fit to a one site binding model, after subtracting the heats from the last three injections to account for heat of dilution of the oligosaccharide into buffer. Each oligosaccharide was analyzed in four independently performed ITC experiments.

hisCD44_HABD^20–169 = molecular target: T2, hisCD44_HABD^20–169 (Homo sapiens, UniProt P16070); assay: MST of HA oligosaccharides binding to hisCD44_HABD^20–169; conditions: for Kd: 10 mM Hepes pH 7.5, 150 mM NaCl, 0.05% Tween-20, 25 °C, three titrations, read-out: KD; for % Binding affinity hisCD44_HABD^20–169: Table 6, relative to unmodified oligosaccharide of the same length, by MST
T2 construct: A novel construct consisting of residues 20 to 169 of human CD44 and an N-terminal six-histidine tag; made in house
Description: For hisCD44_HABD^20–169, interactions with HA oligosaccharides were assessed using MST. Protein (200 nM) was labeled with 5 μM red-Tris-NTA-650 dye following the manufacturer’s instructions in 10 mM Hepes, pH 7.4, 150 mM NaCl, 0.05% (v/v) Tween-20 (interaction buffer). Stock solutions of HA oligosaccharides (5 mM in interaction buffer) were serially diluted (1:1 in interaction buffer) 16 times before each concentration was mixed with an equal volume of labeled protein (10 nM final concentration hisCD44_HABD^20–169). Samples were loaded into standard glass capillaries (NanoTemper) and thermophoresis measured at 25 °C (with active temperature control) using a Monolith NT.115pico instrument (NanoTemper) running NT Control software (version 1.0.1). All experiments were performed in triplicate and data analyzed with the “KD fit model” in the NT Analysis software (version 2.0.2).

recombinant human TSG-6 = molecular target: T3, recombinant human TSG-6 (Homo sapiens, UniProt P19827+P98066); assay: In vitro HC-transfer assay (IαI + rhTSG-6, Western blot anti-HC1); format: biochemical; conditions: 15 μM HA, 1.8 μM IαI, rhTSG-6, 2 h at 37 °C; for Substrate for HC transfer: Table 6; for Activity as substrate for HC transfer (text): Western blot anti-HC1
T3 construct: TSG-6–mediated HC-transfer assays (using full-length TSG6); purchased R&D Systems
Description: Covalent transfer of HC from IαI onto unmodified and chemically modified HA oligosaccharides was analyzed using the assay described previously ([26]). All reactions were performed using a buffer of 20 mM Hepes, pH 7.5, 150 mM NaCl, and 5 mM MgCl2. In a “standard” assay, HA oligosaccharides were at 15 μM, human IαI ([97]) 1.8 at μM (based on a molecular weight of 180 kDa), and recombinant human TSG-6 (R&D Systems) at 2.8 μM (based on a molecular weight of 35 kDa). Reaction mixtures were analyzed by SDS-PAGE using 4 to 12% bis-tris polyacrylamide gels (Invitrogen). For Western blot analysis, proteins were transferred onto nitrocellulose membrane (GE Healthcare) and incubated with antisera against HC1 (CP7, 1:10,000; ([98])). Bound primary antibody was detected using goat-anti-rabbit IgG conjugated to IR dye (LI-COR Biosciences) and blots imaged using an Odyssey Clx near-IR fluorescence imaging system (LICOR Biosciences).

T2 sequence (P16070 20-169): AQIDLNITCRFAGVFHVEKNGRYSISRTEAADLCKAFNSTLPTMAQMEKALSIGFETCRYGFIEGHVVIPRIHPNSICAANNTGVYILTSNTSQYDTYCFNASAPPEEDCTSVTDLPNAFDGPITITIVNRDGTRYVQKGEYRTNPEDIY
T1 sequence (P98066 36-129 limits assumed): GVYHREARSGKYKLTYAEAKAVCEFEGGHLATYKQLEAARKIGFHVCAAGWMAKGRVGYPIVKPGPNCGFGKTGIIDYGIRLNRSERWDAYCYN
T3 sequence (P98066 18-277): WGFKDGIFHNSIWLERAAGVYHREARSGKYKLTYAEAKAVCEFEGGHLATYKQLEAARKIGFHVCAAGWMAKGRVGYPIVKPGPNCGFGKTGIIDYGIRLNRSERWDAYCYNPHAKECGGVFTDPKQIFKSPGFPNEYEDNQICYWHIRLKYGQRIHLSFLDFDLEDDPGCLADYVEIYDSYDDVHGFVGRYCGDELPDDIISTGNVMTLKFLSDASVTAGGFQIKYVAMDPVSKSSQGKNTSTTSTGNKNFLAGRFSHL
T3 sequence (P19827 35-672 limits assumed): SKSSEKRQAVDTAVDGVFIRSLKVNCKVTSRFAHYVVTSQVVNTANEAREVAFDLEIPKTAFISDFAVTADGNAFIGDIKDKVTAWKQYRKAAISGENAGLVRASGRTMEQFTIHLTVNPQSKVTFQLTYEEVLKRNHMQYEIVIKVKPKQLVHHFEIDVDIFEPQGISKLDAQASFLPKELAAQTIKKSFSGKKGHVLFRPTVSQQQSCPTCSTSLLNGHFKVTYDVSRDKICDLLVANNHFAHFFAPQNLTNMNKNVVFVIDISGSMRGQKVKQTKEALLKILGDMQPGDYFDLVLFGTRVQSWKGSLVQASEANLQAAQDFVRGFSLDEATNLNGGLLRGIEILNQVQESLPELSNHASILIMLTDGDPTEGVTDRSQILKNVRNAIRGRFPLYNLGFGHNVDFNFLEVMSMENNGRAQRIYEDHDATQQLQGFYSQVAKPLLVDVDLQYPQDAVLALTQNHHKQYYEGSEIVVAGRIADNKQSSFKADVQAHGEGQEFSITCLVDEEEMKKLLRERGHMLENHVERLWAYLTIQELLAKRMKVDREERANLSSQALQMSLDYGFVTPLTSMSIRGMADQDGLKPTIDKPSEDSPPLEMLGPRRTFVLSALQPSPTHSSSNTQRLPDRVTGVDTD

| Structure (SMILES) | Substrate for HC transfer (recombinant human TSG-6) | Activity as substrate for HC transfer (text) (recombinant human TSG-6) | N (Link_TSG6; Table 1, ITC) | ΔG (Link_TSG6; Table 1, ITC) | ΔH (Link_TSG6; Table 1, ITC) | −TΔS (Link_TSG6; Table 1, ITC) | further results |
| --- | --- | --- | --- | --- | --- | --- | --- |
| COc1ccc(C(=O)O)c(NC[C@H](NC(C)=O)[C@@H](O[C@@H]2O[C@H](C(=O)O)[C@@H](O[C@@H]3O[C@H](CO)[C@@H](O)[C@H](O[C@@H]4O[C@H](C(=O)O)[C@@H](O[C@@H]5O[C@H](CO)[C@@H](O)[C@H](O[C@@H]6O[C@H](C(=O)O)[C@@H](O)[C@H](O)[C@H]6O)[C@H]5NC(C)=O)[C@H](O)[C@H]4O)[C@H]3NC(C)=O)[C@H](O)[C@H]2O)[C@H](O)[C@H](O)CO)c1 [HA6-2A4MBA] | Yes | weak substrates; also recorded: could become covalently coupled to an HC | – | – | – | – | % of binding to Link_TSG6 compared to the unmodified oligosaccharide of the same length (Link_TSG6; ITC): 238%; Fold increase in affinity for Link_TSG6 compared to the unmodified oligosaccharide (Link_TSG6; ITC): 2.4 fold; Kd (Link_TSG6; ITC, read-out: KD for Link_TSG6): 0.46 µM; N (Link_TSG6; Table 4, ITC): 1.00 ± 0.02; ΔG (Link_TSG6; Table 4, ITC): -8.64 ± 0.04 kcal/mol; ΔH (Link_TSG6; Table 4, ITC): -10.07 ± 0.28 kcal/mol; −TΔS (Link_TSG6; Table 4, ITC): 1.44 ± 0.25 kcal•mol^a1; % Binding affinity Link_TSG6 (Link_TSG6; Table 6, relative to unmodified oligosaccharide of the same length, by ITC): 238%; % of binding to hisCD44_HABD^20–169 compared to the unmodified oligosaccharide of the same length (hisCD44_HABD^20–169; MST): 52%; % HAx^AN: percentage of binding affinity (KB) compared to the unmodified oligosaccharide of the same length (hisCD44_HABD^20–169; Table 5, MST): 52%; Kd (hisCD44_HABD^20–169; Table 5, MST, mean ± SD): 198 ± 29 µM; % Binding affinity hisCD44_HABD^20–169 (hisCD44_HABD^20–169): 52% |
| CC(=O)N[C@H]1[C@H](O[C@H]2[C@H](O)[C@@H](O)[C@H](O[C@@H]([C@H](O)[C@H](O)CO)[C@H](CNc3cccc(C(=O)O)c3)NC(C)=O)O[C@@H]2C(=O)O)O[C@H](CO)[C@@H](O)[C@@H]1O[C@@H]1O[C@H](C(=O)O)[C@@H](O)[C@H](O)[C@H]1O [HA4-3AA] | No | – | – | – | – | – | % of binding to hisCD44_HABD^20–169 compared to the unmodified oligosaccharide of the same length (hisCD44_HABD^20–169; MST): 260%; % HAn^AN: percentage of binding affinity (KB) compared to the unmodified oligosaccharide of the same length (hisCD44_HABD^20–169; Table 2, MST): 260%; Kd (hisCD44_HABD^20–169; Table 2, MST, mean (±SD)): 845 µM; % Binding affinity hisCD44_HABD^20–169 (hisCD44_HABD^20–169): 260% |
| CC(=O)N[C@H]1[C@H](O[C@H]2[C@H](O)[C@@H](O)[C@H](O[C@H]3[C@H](O)[C@@H](CO)O[C@@H](O[C@H]4[C@H](O)[C@@H](O)[C@H](O[C@@H]([C@H](O)[C@H](O)CO)[C@H](CNc5ccccc5C(=O)O)NC(C)=O)O[C@@H]4C(=O)O)[C@@H]3NC(C)=O)O[C@@H]2C(=O)O)O[C@H](CO)[C@@H](O)[C@@H]1O[C@@H]1O[C@H](C(=O)O)[C@@H](O)[C@H](O)[C@H]1O [HA6-2AA] | Yes | good substrates; also recorded: could become covalently coupled to an HC | 1.03 ± 0.02 | -8.50 ± 0.04 kcal/mol | -7.84 ± 0.43 kcal/mol | -0.66 ± 0.41 kcal/mol | – |
| CC(=O)N[C@H]1[C@H](O[C@H]2[C@H](O)[C@@H](O)[C@H](O[C@H]3[C@H](O)[C@@H](CO)O[C@@H](O[C@H]4[C@H](O)[C@@H](O)[C@H](O[C@H]5[C@H](O)[C@@H](CO)O[C@@H](O[C@H]6[C@H](O)[C@@H](O)[C@H](O[C@@H]([C@H](O)[C@H](O)CO)[C@H](CNc7cccc(C(=O)O)c7)NC(C)=O)O[C@@H]6C(=O)O)[C@@H]5NC(C)=O)O[C@@H]4C(=O)O)[C@@H]3NC(C)=O)O[C@@H]2C(=O)O)O[C@H](CO)[C@@H](O)[C@@H]1O[C@@H]1O[C@H](C(=O)O)[C@@H](O)[C@H](O)[C@H]1O [HA8-3AA] | Yes | – | 1.05 ± 0.03 | -8.95 ± 0.13 kcal/mol | -8.53 ± 0.33 kcal/mol | -0.60 ± 0.09 kcal/mol | – |
| CC(=O)N[C@H]1[C@H](O[C@H]2[C@H](O)[C@@H](O)[C@H](O[C@H]3[C@H](O)[C@@H](CO)O[C@@H](O[C@H]4[C@H](O)[C@@H](O)[C@H](O[C@H]5[C@H](O)[C@@H](CO)O[C@@H](O[C@H]6[C@H](O)[C@@H](O)[C@H](O[C@@H]([C@H](O)[C@H](O)CO)[C@H](CNc7ccc(C(=O)O)cc7)NC(C)=O)O[C@@H]6C(=O)O)[C@@H]5NC(C)=O)O[C@@H]4C(=O)O)[C@@H]3NC(C)=O)O[C@@H]2C(=O)O)O[C@H](CO)[C@@H](O)[C@@H]1O[C@@H]1O[C@H](C(=O)O)[C@@H](O)[C@H](O)[C@H]1O [HA8-4AA] | Yes | somewhat weaker substrate than HA8^AN | 0.86 ± 0.02 | -8.37 ± 0.04 kcal/mol | -11.53 ± 0.25 kcal/mol | 3.17 ± 0.26 kcal/mol | – |
| CC(=O)N[C@H]1[C@H](O[C@H]2[C@H](O)[C@@H](O)[C@H](O[C@H]3[C@H](O)[C@@H](CO)O[C@@H](O[C@H]4[C@H](O)[C@@H](O)[C@H](O[C@@H]([C@H](O)[C@H](O)CO)[C@H](CNc5cccc(C(=O)O)c5)NC(C)=O)O[C@@H]4C(=O)O)[C@@H]3NC(C)=O)O[C@@H]2C(=O)O)O[C@H](CO)[C@@H](O)[C@@H]1O[C@@H]1O[C@H](C(=O)O)[C@@H](O)[C@H](O)[C@H]1O [HA6-3AA] | No | No HC•HA6 complexes were observed | 1.05 ± 0.02 | -8.61 ± 0.10 kcal/mol | -6.30 ± 0.11 kcal/mol | -2.21 ± 0.83 kcal/mol | Activity as substrate for HC transfer (text) (recombinant human TSG-6; listed as HA63AA): could become covalently coupled to an HC |
| CC(=O)N[C@H]1[C@H](O[C@H]2[C@H](O)[C@@H](O)[C@H](O[C@H]3[C@H](O)[C@@H](CO)O[C@@H](O[C@H]4[C@H](O)[C@@H](O)[C@H](O[C@H]5[C@H](O)[C@@H](CO)O[C@@H](O[C@H]6[C@H](O)[C@@H](O)[C@H](O[C@@H]([C@H](O)[C@H](O)CO)[C@H](CNc7ccccc7C(=O)O)NC(C)=O)O[C@@H]6C(=O)O)[C@@H]5NC(C)=O)O[C@@H]4C(=O)O)[C@@H]3NC(C)=O)O[C@@H]2C(=O)O)O[C@H](CO)[C@@H](O)[C@@H]1O[C@@H]1O[C@H](C(=O)O)[C@@H](O)[C@H](O)[C@H]1O [HA8-2AA] | Yes | retained full activity as substrates | 1.06 ± 0.03 | -7.83 ± 0.13 kcal/mol | -12.55 ± 0.59 kcal/mol | 4.69 ± 0.73 kcal/mol | – |
| CC(=O)N[C@H]1[C@H](O[C@H]2[C@H](O)[C@@H](O)[C@H](O[C@H]3[C@H](O)[C@@H](CO)O[C@@H](O[C@H]4[C@H](O)[C@@H](O)[C@H](O[C@@H]([C@H](O)[C@H](O)CO)[C@H](CNc5ccc(C(=O)O)cc5)NC(C)=O)O[C@@H]4C(=O)O)[C@@H]3NC(C)=O)O[C@@H]2C(=O)O)O[C@H](CO)[C@@H](O)[C@@H]1O[C@@H]1O[C@H](C(=O)O)[C@@H](O)[C@H](O)[C@H]1O [HA6-4AA] | Yes | weak substrates | 1.02 ± 0.05 | -8.40 ± 0.08 kcal/mol | -7.57 ± 0.26 kcal/mol | -0.83 ± 0.34 kcal/mol | – |
